From patent US12715849B2, “Herbicidal tetrazole compounds” (SYNGENTA CROP PROTECTION AG, priority 2020, dated 2026)

Legend:
Assay in all cases: Glasshouse herbicidal test, pre- and post-emergence (Table B1)
Type in all cases: in vivo
[1] = test system: Ablution theophrasti (ABUTH); conditions: 130 g/h, evaluated after 13 days; for percentage damage caused to the plant, POST Application ABUTH: post-emergence; for percentage damage caused to the plant, PRE Application ABUTH: pre-emergence
Experimental: (§1) Seeds of a variety of test species are sown in standard soil in pots (Lolium perenne (LOLPE), Amaranthus retoflexus (AMARE), Amaranthus palmeri (AMAPA), Ablution theophrasti (ABUTH), Setaria faberi (SETFA), Echinochloa crus-galli (ECHCG), Ipomoea hederacea (IPOHE)). After cultivation for one day (pre-emergence) or after 8 days cultivation (post-emergence) under controlled conditions in a glasshouse (at 24/16° C., day/night; 14 hours light; 65% humidity), the plants are sprayed with an aqueous spray solution derived from the formulation of the technical active ingredient in acetone/water (50:50) solution containing 0.5% Tween 20 (polyoxyethelyene sorbitan monolaurate, CAS RN 9005-64-5). Compounds are applied at 130 g/h unless otherwise indicated. The test plants are then grown in a glasshouse under controlled conditions in a glasshouse (at 24/16° C., day/night; 14 hours light; 65% humidity) and watered twice daily. After 13 days for pre and post-emergence, the test is evaluated for the percentage damage caused to the plant. The biological activities are shown in the following table on a five-point scale (5=80-100%; 4=60-79%; 3=40-59%; 2=20-39%; 1=0-19%).

[2] = test system: Amaranthus palmeri (AMAPA); conditions: 130 g/h, evaluated after 13 days; for percentage damage caused to the plant, POST Application AMAPA: post-emergence; for percentage damage caused to the plant, PRE Application AMAPA: pre-emergence
Experimental: as §1

[3] = test system: Amaranthus retoflexus (AMARE); conditions: 130 g/h, evaluated after 13 days; for percentage damage caused to the plant, POST Application AMARE: post-emergence; for percentage damage caused to the plant, PRE Application AMARE: pre-emergence
Experimental: as §1

[4] = test system: Echinochloa crus-galli (ECHCG); conditions: 130 g/h, evaluated after 13 days; for percentage damage caused to the plant, POST Application ECHCG: post-emergence; for percentage damage caused to the plant, PRE Application ECHCG: pre-emergence
Experimental: as §1

[5] = test system: Ipomoea hederacea (IPOHE); conditions: 130 g/h, evaluated after 13 days; for percentage damage caused to the plant, POST Application IPOHE: post-emergence; for percentage damage caused to the plant, PRE Application IPOHE: pre-emergence
Experimental: as §1

Setaria faberi (SETFA) = conditions: 130 g/h, evaluated after 13 days; for percentage damage caused to the plant, POST Application SETFA: post-emergence; for percentage damage caused to the plant, PRE Application SETFA: pre-emergence
Experimental: as §1

Structure (SMILES)	percentage damage caused to the plant, POST Application ABUTH [1]	percentage damage caused to the plant, PRE Application ABUTH [1]	percentage damage caused to the plant, POST Application AMAPA [2]	percentage damage caused to the plant, PRE Application AMAPA [2]	percentage damage caused to the plant, POST Application AMARE [3]	percentage damage caused to the plant, PRE Application AMARE [3]	percentage damage caused to the plant, POST Application ECHCG [4]	percentage damage caused to the plant, PRE Application ECHCG [4]	percentage damage caused to the plant, POST Application IPOHE [5]	percentage damage caused to the plant, PRE Application IPOHE [5]	percentage damage caused to the plant, POST Application SETFA (Setaria faberi (SETFA))	percentage damage caused to the plant, PRE Application SETFA (Setaria faberi (SETFA))
CCS(=O)(=O)Nc1c(OC(F)F)ccc(C(=O)Nc2nnnn2C)c1Cl [Compound 1.064]	5 (5=80-100%)	5 (5=80-100%)	5 (5=80-100%)	5 (5=80-100%)	5 (5=80-100%)	5 (5=80-100%)	5 (5=80-100%)	5 (5=80-100%)	4 (4=60-79%)	2 (2=20-39%)	5 (5=80-100%)	4 (4=60-79%)
CCn1nnnc1NC(=O)c1ccc(OC(F)(F)F)c(NS(=O)(=O)CC)c1Cl [Compound 1.002, 2-chloro-3-(ethylsulfonylamino)-N-(1-ethyltetrazol-5-yl)-4-(trifluoromethoxy)benzamide]	5 (5=80-100%)	5 (5=80-100%)			5 (5=80-100%)	5 (5=80-100%)	5 (5=80-100%)	5 (5=80-100%)	4 (4=60-79%)	5 (5=80-100%)	5 (5=80-100%)	5 (5=80-100%)
Cn1nnnc1NC(=O)c1ccc(OC(F)(F)F)c(NS(C)(=O)=O)c1Cl [Compound 1.004]	5 (5=80-100%)	5 (5=80-100%)			5 (5=80-100%)	5 (5=80-100%)	5 (5=80-100%)	5 (5=80-100%)	4 (4=60-79%)	3 (3=40-59%)	5 (5=80-100%)	5 (5=80-100%)
Cn1nnnc1NC(=O)c1ccc(OC(F)F)c(NS(=O)(=O)C2CC2)c1Cl [Compound 1.067]	5 (5=80-100%)	5 (5=80-100%)			4 (4=60-79%)	5 (5=80-100%)	5 (5=80-100%)	4 (4=60-79%)	5 (5=80-100%)	4 (4=60-79%)	5 (5=80-100%)	3 (3=40-59%)
CCn1nnnc1NC(=O)c1ccc(OC(F)(F)F)c(NS(C)(=O)=O)c1Cl [Compound 1.001]	5 (5=80-100%)	5 (5=80-100%)			4 (4=60-79%)	5 (5=80-100%)	5 (5=80-100%)	5 (5=80-100%)	5 (5=80-100%)	4 (4=60-79%)	5 (5=80-100%)	3 (3=40-59%)
CC(C)S(=O)(=O)Nc1c(OC(F)F)ccc(C(=O)Nc2nnnn2C)c1Cl [Compound 1.013]	5 (5=80-100%)	5 (5=80-100%)			5 (5=80-100%)	5 (5=80-100%)	5 (5=80-100%)	5 (5=80-100%)	5 (5=80-100%)	5 (5=80-100%)	5 (5=80-100%)	4 (4=60-79%)
Cn1nnnc1NC(=O)c1ccc(OC(F)F)c(NS(C)(=O)=O)c1Cl [Compound 1.065]		5 (5=80-100%)			5 (5=80-100%)	5 (5=80-100%)		4 (4=60-79%)	4 (4=60-79%)	2 (2=20-39%)	5 (5=80-100%)	3 (3=40-59%)
COCCS(=O)(=O)Nc1c(OC(F)(F)F)ccc(C(=O)Nc2nnnn2C)c1Cl [Compound 1.054]			5 (5=80-100%)	5 (5=80-100%)	5 (5=80-100%)	5 (5=80-100%)	5 (5=80-100%)	1 (1=0-19%)	4 (4=60-79%)	3 (3=40-59%)	4 (4=60-79%)	1 (1=0-19%)
CCN(c1c(OC(F)(F)F)ccc(C(=O)Nc2nnnn2C)c1Cl)S(C)(=O)=O [Compound 1.079]			5 (5=80-100%)	5 (5=80-100%)	5 (5=80-100%)	5 (5=80-100%)		5 (5=80-100%)	4 (4=60-79%)	4 (4=60-79%)	5 (5=80-100%)	5 (5=80-100%)
COCCS(=O)(=O)Nc1c(OC(F)F)ccc(C(=O)Nc2nnnn2C)c1Cl [Compound 1.014]			5 (5=80-100%)	5 (5=80-100%)	5 (5=80-100%)	3 (3=40-59%)	4 (4=60-79%)	1 (1=0-19%)	3 (3=40-59%)	1 (1=0-19%)	4 (4=60-79%)	1 (1=0-19%)
CCS(=O)(=O)Nc1c(OC(F)(F)F)ccc(C(=O)Nc2nnnn2C)c1Cl [Compound 1.003, 2-chloro-3-(ethylsulfonylamino)-N-(1-methyltetrazol-5-yl)-4-(trifluoromethoxy)benzamide]	5 (5=80-100%)	5 (5=80-100%)			4 (4=60-79%)	5 (5=80-100%)	5 (5=80-100%)	5 (5=80-100%)	5 (5=80-100%)	4 (4=60-79%)	5 (5=80-100%)	4 (4=60-79%)
CCn1nnnc1NC(=O)c1ccc(OC(F)F)c(NS(C)(=O)=O)c1Cl [Compound 1.059]	5 (5=80-100%)	5 (5=80-100%)			5 (5=80-100%)	5 (5=80-100%)	5 (5=80-100%)	5 (5=80-100%)	5 (5=80-100%)	2 (2=20-39%)	5 (5=80-100%)	4 (4=60-79%)
